This is an account of results in US20260035452A1 (THE UNIVERSITY OF BIRMINGHAM, priority 2022, published 2026).

The subject of the assay is Human dermal blood endothelial cells (HDBEC). The assay can be described thus: HDBEC stimulation (flow cytometry, IL-6 Elisa). The class given is cell-based. The settings on record: 24 h. Here is the method: FIG. 10: Human dermal blood endothelial cells (HDBEC) were treated with: IL-17 vehicle (Ctrl), IL-17 or FM-0410 (100 ng/ml), alone or in combination with TNF-α (100 U/ml) for 24 h. Cells were washed, gated in their totality and singlet before the identification of IL-17Rs (RA and RC) (A, B), ICAM (C) and VCAM (D) expression. Histogram values (expressed as MIF) indicate the total positive cells (A-D). In (E) are shown phase-contrast micrographs of confluent monolayers of untreated or treated (as reported before) HDBEC. Total adhesion (expressed as INT/mm^2, F) and % of transmigration (G) are calculated with Image Pro programme (DataCell, Finchampstead). Inflammatory supernatants from all experimental conditions were assayed by Elisa for IL-6 (H) expressed in pg/ml. Data were presented as means±S.D. of n=3 healthy donors. Statistical analysis was conducted by one-way ANOVA followed by Bonferroni's for multiple comparisons. ^#P≤0.05, ^##P≤0.01, ^###P≤0.001, ^####P≤0.0001 vs Ctrl group; *P≤0.05 vs TNF-α+IL-17 group; ^∘P≤0.05, ^∘∘∘P≤0.001, ^∘∘∘∘P≤0.0001 vs TNF-α group.
Human dermal blood endothelial cells (HDBEC): Primary human dermal blood endothelial cells (HDBECs) were purchased from PromoCell and cultured in the manufacturer's recommended endothelial cell growth medium MV (PromoCell, Heidelberg, Germany). HDBECs were seeded onto 12-well tissue culture plates after 4 passages at a seeding density yielding confluent monolayers. HDBEC monolayers were washed in endothelial cell growth medium MV warmed to 37° C. and stimulated with IL-17 or FM-0410 (100 ng/ml) alone or in a combination with TNF-α (100 U/ml) for 24 h at 37° C. Cells were stimulated for 24 h, before staining with IL-17Rs (RA or RC) or ICAM/VCAM adhesion receptors using a Flow cytometry assay. Supernatants were collected and measured to evaluate IL-6 or TNF-α levels.
Flow Cytometry: HDBEC, collected after 24 h of treatment, were washed with PBS without Ca^2+ and Mg^2+ containing 25 mM lactose for 20 min at room temperature with occasional mixing. Cells were, then, incubated with FcR blocking agents (Miltenyi) in PBS without Ca^2+ and Mg^2+ containing lactose before staining cells with antibodies IL-17 Receptor A (1:100; clone 133617) and IL-17 Receptor C (1:100; clone 309822). Moreover, HDBEC cells were also stained with ICAM (BBIG-V3; 1:50, APC, BD Biosciences) and VCAM (3E2; 1:50, FITC, BD Biosciences). Protein expression was analysed by flow cytometry on a Dako CyAn (Beckman Coulter, High Wycombe, U.K.), and data were analysed using MRFIow and FlowJo software operation. The unspecific binding of antibodies was quantified by using corresponding isotype controls.
Elisa assay: The levels of IL-6 at 24 h were measured using commercially available enzyme-linked immunosorbent assay kits (ELISA kit, R&D System, Milan, Italy) according to the manufacturer's instructions. Briefly, 100 μl of supernatants, diluted standards, quality controls, and dilution buffer (blank) were applied on a plate with the monoclonal antibody for 2 h. After washing, 100 μl of biotin-labeled antibody was added and incubation continued for 1 h. […] The addition of 100 μl of the substrate and stop solution represented the last steps before the reading of absorbance (measured at 450 nm) on a microplate reader. Antigen levels in the samples were determined using a standard curve and expressed as pg/ml.
Background: In flow cytometry, cells or beads pass a laser one at a time.

Setting [1] is: 100 ng/ml in combination with TNF-α (100 U/ml).

No end group written: not given here.

Ac-LEKILVSVGATAVTPIVHHVAC [FM-0410]: under setting [1], the ICAM expression result is “upregulation”, the IL-17RA receptor expression entry is on record as “No effects”, the IL-17RC receptor expression result is recorded as “No effects” and the VCAM expression result is reported as “upregulation”. For the same substance, the “IL-6 levels (marker of cell activation)” value (peptide co-stimulation with TNF-α) is given as “upregulation”.
